Assays:
Splenocyte [1] = test: Immunosuppressive activity against mouse splenocytes assessed as [3H]thymidine incorporation at 500 ug/ml after 88 hrs by liquid scintillation counting; format: functional
Splenocyte [2] = test: Immunosuppressive activity against mouse splenocytes assessed as [3H]thymidine incorporation at 250 ug/ml after 88 hrs by liquid scintillation counting; format: functional
Splenocyte [3] = test: Immunosuppressive activity against mouse splenocytes assessed as [3H]thymidine incorporation at 125 ug/ml after 88 hrs by liquid scintillation counting; format: functional
Splenocyte [4] = test: Immunosuppressive activity against mouse splenocytes assessed as [3H]thymidine incorporation at 62.5 ug/ml after 88 hrs by liquid scintillation counting; format: functional
Splenocyte [5] = test: Immunosuppressive activity against mouse splenocytes assessed as [3H]thymidine incorporation at 31.3 ug/ml after 88 hrs by liquid scintillation counting; format: functional
Splenocyte [6] = test: Immunosuppressive activity against mouse splenocytes assessed as [3H]thymidine incorporation at 15.6 ug/ml after 88 hrs by liquid scintillation counting; format: functional
Splenocyte [7] = test: Immunosuppressive activity against mouse splenocytes assessed as [3H]thymidine incorporation at 7.8 ug/ml after 88 hrs by liquid scintillation counting; format: functional
Splenocyte [8] = test: Immunosuppressive activity against mouse splenocytes assessed as [3H]thymidine incorporation at 3.9 ug/ml after 88 hrs by liquid scintillation counting; format: functional
Splenocyte [9] = test: Immunosuppressive activity against mouse splenocytes assessed as [3H]thymidine incorporation at 2.0 ug/ml after 88 hrs by liquid scintillation counting; format: functional
Splenocyte [10] = test: Immunosuppressive activity against mouse splenocytes assessed as [3H]thymidine incorporation at 1.0 ug/ml after 88 hrs by liquid scintillation counting; format: functional
Splenocyte [11] = test: Immunosuppressive activity against mouse splenocytes assessed as [3H]thymidine incorporation at 0.5 ug/ml after 88 hrs by liquid scintillation counting; format: functional
[12] = Cytotoxicity against mouse splenocytes assessed as cell viability at 500 ug/ml after 88 hrs by MTT assay; format: cell-based, Splenocyte; settings: read-out: Activity
[13] = Cytotoxicity against mouse splenocytes assessed as cell viability at 250 ug/ml after 88 hrs by MTT assay; format: cell-based, Splenocyte; settings: read-out: Activity
[14] = Cytotoxicity against mouse splenocytes assessed as cell viability at 125 ug/ml after 88 hrs by MTT assay; format: cell-based, Splenocyte; settings: read-out: Activity
[15] = Cytotoxicity against mouse splenocytes assessed as cell viability at 62.5 ug/ml after 88 hrs by MTT assay; format: cell-based, Splenocyte; settings: read-out: Activity
[16] = Cytotoxicity against mouse splenocytes assessed as cell viability at 31.3 ug/ml after 88 hrs by MTT assay; format: cell-based, Splenocyte; settings: read-out: Activity
[17] = Cytotoxicity against mouse splenocytes assessed as cell viability at 15.6 ug/ml after 88 hrs by MTT assay; format: cell-based, Splenocyte; settings: read-out: Activity
[18] = Cytotoxicity against mouse splenocytes assessed as cell viability at 7.8 ug/ml after 88 hrs by MTT assay; format: cell-based, Splenocyte; settings: read-out: Activity
[19] = Cytotoxicity against mouse splenocytes assessed as cell viability at 3.9 ug/ml after 88 hrs by MTT assay; format: cell-based, Splenocyte; settings: read-out: Activity
[20] = Cytotoxicity against mouse splenocytes assessed as cell viability at 2.0 ug/ml after 88 hrs by MTT assay; format: cell-based, Splenocyte; settings: read-out: Activity
[21] = Cytotoxicity against mouse splenocytes assessed as cell viability at 1.0 ug/ml after 88 hrs by MTT assay; format: cell-based, Splenocyte; settings: read-out: Activity
[22] = Cytotoxicity against mouse splenocytes assessed as cell viability at 0.5 ug/ml after 88 hrs by MTT assay; format: cell-based, Splenocyte; settings: read-out: Activity
Splenocyte [23] = test: Immunosuppressive activity against mouse splenocytes assessed as [3H]thymidine incorporation at 0.25 ug/ml after 88 hrs by liquid scintillation counting; format: functional
[24] = Cytotoxicity against mouse splenocytes assessed as cell viability at 0.25 ug/ml after 88 hrs by MTT assay; format: cell-based, Splenocyte; settings: read-out: Activity
[25] = Cytotoxicity against mouse splenocytes assessed as cell viability at 0.3 ug/ml after 88 hrs by MTT assay; format: cell-based, Splenocyte; settings: read-out: Activity
Splenocyte [26] = test: Immunosuppressive activity against concanavalin A-activated mouse splenocytes assessed as [3H]thymidine incorporation at 500 ug/ml after 72 hrs by liquid scintillation counting; format: functional
Splenocyte [27] = test: Immunosuppressive activity against concanavalin A-activated mouse splenocytes assessed as [3H]thymidine incorporation at 250 ug/ml after 72 hrs by liquid scintillation counting; format: functional
Splenocyte [28] = test: Immunosuppressive activity against concanavalin A-activated mouse splenocytes assessed as [3H]thymidine incorporation at 125 ug/ml after 72 hrs by liquid scintillation counting; format: functional
Splenocyte [29] = test: Immunosuppressive activity against concanavalin A-activated mouse splenocytes assessed as [3H]thymidine incorporation at 62.5 ug/ml after 72 hrs by liquid scintillation counting; format: functional
Splenocyte [30] = test: Immunosuppressive activity against concanavalin A-activated mouse splenocytes assessed as [3H]thymidine incorporation at 31.3 ug/ml after 72 hrs by liquid scintillation counting; format: functional
Splenocyte [31] = test: Immunosuppressive activity against concanavalin A-activated mouse splenocytes assessed as [3H]thymidine incorporation at 15.6 ug/ml after 72 hrs by liquid scintillation counting; format: functional
Splenocyte [32] = test: Immunosuppressive activity against concanavalin A-activated mouse splenocytes assessed as [3H]thymidine incorporation at 7.8 ug/ml after 72 hrs by liquid scintillation counting; format: functional
Splenocyte [33] = test: Immunosuppressive activity against concanavalin A-activated mouse splenocytes assessed as [3H]thymidine incorporation at 3.9 ug/ml after 72 hrs by liquid scintillation counting; format: functional
Splenocyte [34] = test: Immunosuppressive activity against concanavalin A-activated mouse splenocytes assessed as [3H]thymidine incorporation at 2.0 ug/ml after 72 hrs by liquid scintillation counting; format: functional
Splenocyte [35] = test: Immunosuppressive activity against concanavalin A-activated mouse splenocytes assessed as [3H]thymidine incorporation at 1.0 ug/ml after 72 hrs by liquid scintillation counting; format: functional
Splenocyte [36] = test: Immunosuppressive activity against concanavalin A-activated mouse splenocytes assessed as [3H]thymidine incorporation at 0.5 ug/ml after 72 hrs by liquid scintillation counting; format: functional
Splenocyte [37] = test: Immunosuppressive activity against concanavalin A-activated mouse splenocytes assessed as [3H]thymidine incorporation at 0.3 ug/ml after 72 hrs by liquid scintillation counting; format: functional

| Compound | Activity (Splenocyte [1]) | Activity (Splenocyte [2]) | Activity (Splenocyte [3]) | Activity (Splenocyte [4]) | Activity (Splenocyte [5]) | Activity (Splenocyte [6]) | Activity (Splenocyte [7]) | Activity (Splenocyte [8]) | Activity (Splenocyte [9]) | Activity (Splenocyte [10]) | Activity (Splenocyte [11]) | viability at 88 h, 500 ug/ml [12] | viability at 88 h, 250 ug/ml [13] | viability at 88 h, 125 ug/ml [14] | viability at 88 h, 62.5 ug/ml [15] | viability at 88 h, 31.3 ug/ml [16] | viability at 88 h, 15.6 ug/ml [17] | viability at 88 h, 7.8 ug/ml [18] | viability at 88 h, 3.9 ug/ml [19] | viability at 88 h, 2 ug/ml [20] | other results |
| --- | --- | --- | --- | --- | --- | --- | --- | --- | --- | --- | --- | --- | --- | --- | --- | --- | --- | --- | --- | --- | --- |
| CC(C)CCC[C@@H](C)[C@H]1CC[C@H]2C3=C(CC[C@]12C)[C@@]1(C)CC[C@H](O)[C@@H](C)[C@@H]1CC3 | 100% | 100% | 100% | 100% | 100% | 100% | 100% | 100% | 100% | 81% | 46% | 6% | 10% | 28% | 72% | 85% | 92% | 80% | 99% | 77% | viability at 88 h, 1 ug/ml [21]: 97%; viability at 88 h, 0.5 ug/ml [22]: 118%; Activity (Splenocyte [23]): 0%; viability at 88 h, 0.25 ug/ml [24]: 104% |
| O=C(O)c1cc(Br)c(Br)[nH]1 | 100% | 100% | 100% | 100% | 100% | 100% | 40% | 59% | 31% | 13% | 0% | 10% | 0% | 12% | 27% | 27% | 66% | 99% | 80% | 99% | viability at 88 h, 1 ug/ml [21]: 95%; viability at 88 h, 0.5 ug/ml [22]: 113%; viability at 88 h, 0.3 ug/ml [25]: 100%; Activity (Splenocyte [26]): 83%; Activity (Splenocyte [27]): 99%; Activity (Splenocyte [28]): 83%; Activity (Splenocyte [29]): 83%; Activity (Splenocyte [30]): 83%; Activity (Splenocyte [31]): 84%; Activity (Splenocyte [32]): 64%; Activity (Splenocyte [33]): 70%; Activity (Splenocyte [34]): 29%; Activity (Splenocyte [35]): 43%; Activity (Splenocyte [36]): 39%; Activity (Splenocyte [37]): 50% |
